Source: patent US8486994B2, “Prodrugs of substituted 1,3-dioxanes and their uses” (Evolva SA, priority 2007, dated 2013)
Read-outs that look alike come from different tables or passages of the source.

Tests used:
[1] = system: arterial thrombosis in a mouse model; experiment: FeCl3 arterial thrombosis model (femoral artery, laser Doppler blood flow); type: in vivo, mice
Description: • Vehicle (DMSO/PEG 400, 5/95) • Dose of 1, 3, 10, 30, 100 and 300 mg/kg of Prodrug 3 in vehicle • Saline • Aspirin (dose of 100 mg and 600 mg/kg in vehicle) • Aspirin (Aspégic from Sanofi Synthelabo; dissolved in Saline) • Clopidogrel (Plavix from Sanofi Pharma; dissolved in H2O)
The solutions are diluted 3.3-fold in saline and 100 μl/25 g is injected. Thus, the above-mentioned doses of 100 and 300 mg/kg of compound correspond to final doses of 30 and 100 mg/kg.
Solutions are injected (100 μl/25 g body weight) i.v. in the tail vein over 2 min to obtain doses of each compound of 30 mg/kg and 100 mg/kg. Aspirin is given the same way at a dose of 200 mg/kg. Clopidogrel is administered by oral gavage at a dose of 20 mg/kg at 6-7 hours prior to the experiment. The animals assigned to each group are matched for body weight. Mice are typically 8-10 weeks old males and are in a 100% Swiss genetic background.
The flow in each image is expressed as a percentage of that at the contralateral side, and data are averaged for all 120 images to determine total flow. The same analysis is performed for 10 min intervals (which gives essentially the same information as the area under the curve). […] Flow before treatment is recorded as 100%, and that in occluded arteries as 0%. At the end of the experiment, blood is collected on 0.01M citrate buffer by heart puncture for determination of blood cell counts. Plasma is prepared by centrifugation and stored at −20° C. for determination of drug levels.
Statistical analysis for differences between two groups is performed by non-parametric Student t-test. Occlusion times >30 min were considered equal to 30 min for statistical analysis. Significance is set at p<0.05.

[2] = target: T1, Thromboxane synthase (Homo sapiens, UniProt P24557); experiment: Human Platelet Thromboxane Synthase Assay; type: biochemical
T1 sequence (P24557 1-533): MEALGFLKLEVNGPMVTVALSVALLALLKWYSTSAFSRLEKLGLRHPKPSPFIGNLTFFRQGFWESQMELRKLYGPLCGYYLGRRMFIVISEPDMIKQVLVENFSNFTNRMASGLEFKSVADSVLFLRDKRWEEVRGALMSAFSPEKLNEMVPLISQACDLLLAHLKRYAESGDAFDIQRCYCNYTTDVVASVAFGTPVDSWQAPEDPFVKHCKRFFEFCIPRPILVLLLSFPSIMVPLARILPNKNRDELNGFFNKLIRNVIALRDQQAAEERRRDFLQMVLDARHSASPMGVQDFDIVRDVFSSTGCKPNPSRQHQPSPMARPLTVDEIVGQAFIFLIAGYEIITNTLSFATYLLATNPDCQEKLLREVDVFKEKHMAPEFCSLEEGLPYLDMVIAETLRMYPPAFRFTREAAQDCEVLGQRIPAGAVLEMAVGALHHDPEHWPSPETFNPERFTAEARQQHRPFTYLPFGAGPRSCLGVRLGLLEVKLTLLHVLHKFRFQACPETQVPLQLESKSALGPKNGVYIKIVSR
Description: Using these experimental conditions Substrate: 10 μM PGH2, Vehicle: 1% DMSO
Pre-incubation time, temp: 15 min at 25° C., Incubation time, temp: 3 min at 25° C.
1. Imidazole derivatives. J Med Chem. 24(10):1139-48.
(§1) The data were transformed to semi-log and then analysed using non-linear regression to a four-parameter dose-response curve Y=Bottom+(Top−Bottom)/(1+10^((Log EC50−X)*HillSlope)) using the log(agonist) vs. response—Variable slope function of GraphPad Prism software (http://graphpad.com/help/prism5/prism5help.html?usingnonlinear_regression_step_by_s.ht m).

[3] = target: T2, Thromboxane receptor (TP) (Homo sapiens, UniProt P21731); experiment: TP Receptor Radioligand Binding ([3H] SQ-29548); conditions: Human recombinant HEK-293 cells
T2 construct: expressed in transfected cells; host or cells: HEK-293
T2 sequence (P21731 1-343): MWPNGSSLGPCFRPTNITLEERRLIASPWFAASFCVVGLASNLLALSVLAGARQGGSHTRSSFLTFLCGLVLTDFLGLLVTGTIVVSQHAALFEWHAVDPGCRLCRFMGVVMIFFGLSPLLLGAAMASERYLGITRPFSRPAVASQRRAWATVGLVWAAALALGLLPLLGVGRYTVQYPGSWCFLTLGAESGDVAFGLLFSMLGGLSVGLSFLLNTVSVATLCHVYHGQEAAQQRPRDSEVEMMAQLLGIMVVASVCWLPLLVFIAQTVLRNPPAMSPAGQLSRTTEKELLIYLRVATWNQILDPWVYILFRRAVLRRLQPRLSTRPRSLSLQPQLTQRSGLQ
Description: Using these experimental conditions Human recombinant HEK-293 cells, Ligand: 5 nM [^3H] […] J Pharmacol Exp Ther. 245(3):786-92792, and Saussy D L Jr, Mais D E, Burch R M and Halushka P V (1986) Identification of a putative thromboxane A2/prostaglandin H2 receptor in human platelet membranes. J Biol Chem. 261(7):3025-9.
as §1

[4] = Pharmacokinetics (plasma exposure) after i.v. or p.o. dosing, non-compartmental analysis; type: in vivo, male Wistar rats; conditions: rat; for half-life: read-out: Terminal Half-life elimination, t½z
Description: Animals were fasted overnight before dosing p.o. (gavage or capsule) or by bolus intravenous application. Blood samples (approx. 0.15 ml) were taken at different time points into heparinized tubes by automated blood sampling. Plasma was prepared and stored frozen until bioanalysis.
• to an aliquot of 10 μL plasma 30 μL ACN/EtOH (50/50, v/v) are added • vortex • 20 min 14000 rpm approx. 8° C. • Supernatant transfer in HPLC vial Liquid Chromatography
The samples were analyzed by mass spectroscopy using ESI (negative ion mode) as the ionization mode. Selected Reaction Monitoring:
The quantitatively measured plasma concentration-time data were subjected to non-compartmental analysis (NCA) using the PCModfit program (version 3.00) for Windows® running with Excel 2003 (http://home2.btconnect.com/Gamms/PCModfit/; Allen, G. D. ‘Modfit: a pharmacokinetics computer program’ Biopharm. and Drug Disp., Vol. 11, 477-498, 1990). The points selected in each profile for half-life estimation using numerical analysis, where possible, corresponded to the final linear phase as visually assessed from ln(concentration) vs. time plots. The terminal elimination rate constant (λz) for each profile was numerically estimated using iteratively re-weighted non-linear least squares analysis with a weighting factor of 1/Ĉ^2. The area under the concentration-time curve to the last actual time point (AUC0-t) and infinity (AUC0-∞) for each data set were estimated using a linear (ascending) trapezoidal method. The extrapolated area to infinity (AUC0-∞) was estimated, where possible, using AUC0-t and the predicted value (Ĉn) at the last time point for each profile.
[formula] [formula] The Ci values correspond to the actual concentrations of drug at time ti for n data points. The C0 value was extrapolated using the first 4 time points.

[5] = i.v., 3.56 mg/kg, DMSO/PEG400/PBS 1X (5%/30%/65%)
[6] = i.v., 3.53 mg/kg, DMSO/PEG400 (5%/95%)
[7] = p.o., 10 mg/kg, solid in capsules

SMILES: CC(=O)Oc1ccccc1C(=O)O [Aspirin]
- occlusion time ([1]; 200 mg/kg i.v.): no effect on the occlusion time
- total blood flow ([1]; 200 mg/kg i.v., versus vehicle): no significant effect on the total blood flow

SMILES: COC(=O)[C@H](c1ccccc1Cl)N1CCc2sccc2C1 [Clopidogrel]
- occlusion time ([1]; 20 mg/kg oral gavage 6-7 hours prior to the experiment): totally prevents occlusion within 30 min in 6/7 experiments
- total blood flow ([1]; 20 mg/kg oral gavage 6-7 hours prior, versus vehicle): significantly improved total blood flow

SMILES: COc1ccccc1[C@@H]1O[C@H](c2ccccc2Cl)OC[C@@H]1C/C=C\CCC(=O)O [Compound 4, (Z)-6-((2R,4R,5S)-2-(2-chlorophenyl)-4-(2-methoxyphenyl)-1,3-dioxan-5-yl)hex-4-enoic acid]
- IC50 [2]: 17500 nM
- IC50 [3]: 1870 nM
- Ki [3]: 1220 nM

SMILES: COc1ccccc1[C@H]1O[C@@H](c2ccccc2Cl)OC[C@H]1C/C=C\CCC(=O)O [Compound 5, (Z)-6-((2S,4S,5R)-2-(2-chlorophenyl)-4-(2-methoxyphenyl)-1,3-dioxan-5-yl)hex-4-enoic acid]
- IC50 [2]: 20400 nM
- inhibition at 30 µM ([2]; at 30 μM): 62%
- IC50 [3]: 23.4 nM
- Ki [3]: 15.3 nM

SMILES: COc1ccccc1[C@H]1OC(c2ccccc2Cl)OC[C@H]1C/C=C\CCC(=O)O (stereo partly shown) [Prodrug 3]
- total blood flow ([1]; 10 mg/kg in vehicle, i.v.): no effect on total blood flow
- occlusion time ([1]; 30 mg/kg in vehicle (DMSO/PEG 400), i.v.): prolongs the occlusion time as compared to aspirin (p=0.024) and the parent compound, but has no effect as compared to vehicle
- total blood flow ([1]; 30 mg/kg in vehicle, i.v.): slightly improved total blood flow as compared to aspirin (p=0.055), but not as compared to vehicle

SMILES: O=C(O)CC/C=C\C[C@@H]1CO[C@H](c2ccccc2Cl)O[C@@H]1c1ccccc1O [drawing 18]
- half-life ([4]; male, Wistar, plasma, iv, 3.56 mg/kg, i.v., 3.56 mg/kg, DMSO/PEG400/PBS 1X (5%/30%/65%)): 0.767 ± 0.433 h
- Tmax ([4]; male, Wistar, plasma, iv, 3.56 mg/kg, i.v., 3.56 mg/kg, DMSO/PEG400/PBS 1X (5%/30%/65%), read-out: Tmax (converted)): 0.0833 h
- Cmax (ng/ml)/Dose (mg/kg) [4, 5]: 614 ± 68 (ng/ml)/Dose (mg/kg)
- Lin-AUC (0-∞) (ng•min/ml)/Dose (mg/kg) [4, 5]: 12050 ± 1835 (ng•min/ml)/Dose (mg/kg)
- T-Last [4, 5]: 3 to 6 h

SMILES: COc1ccccc1[C@H]1OC(c2ccccc2Cl)OC[C@H]1C/C=C\CCC(=O)O (stereo partly shown) [drawing 19]
- half-life ([4]; male, Wistar, plasma, iv, 3.53 mg/kg, i.v., 3.53 mg/kg, DMSO/PEG400 (5%/95%)): 3.03 ± 0.917 h
- Tmax ([4]; male, Wistar, plasma, iv, 3.53 mg/kg, i.v., 3.53 mg/kg, DMSO/PEG400 (5%/95%), read-out: Tmax (converted)): 0.0833 h
- Cmax (ng/ml)/Dose (mg/kg) [4, 6]: 554 ± 154 (ng/ml)/Dose (mg/kg)
- Lin-AUC (0-∞) (ng•min/ml)/Dose (mg/kg) [4, 6]: 17416 ± 1734 (ng•min/ml)/Dose (mg/kg)
- T-Last [4, 6]: 8 to 12 h

SMILES: O=C(O)CC/C=C\C[C@@H]1CO[C@H](c2ccccc2Cl)O[C@@H]1c1ccccc1O [drawing 20]
- half-life ([4]; male, Wistar, plasma, po, 10 mg/kg, p.o., 10 mg/kg, solid in capsules): 1.58 ± 0.567 h
- Tmax ([4]; male, Wistar, plasma, po, 10 mg/kg, p.o., 10 mg/kg, solid in capsules, read-out: Tmax (converted)): 1.5 h
- Cmax (ng/ml)/Dose (mg/kg) [4, 7]: 236 ± 63 (ng/ml)/Dose (mg/kg)
- Lin-AUC (0-∞) (ng•min/ml)/Dose (mg/kg) [4, 7]: 27195 ± 4453 (ng•min/ml)/Dose (mg/kg)
- T-Last [4, 7]: 6 to 12 h

SMILES: O=C(O)CC/C=C\C[C@@H]1CO[C@H](c2ccccc2Cl)O[C@@H]1c1ccccc1O [drawing 24]
- Cmax (ng/ml)/Dose (mg/kg) [4, 7]: 115 ± 123 (ng/ml)/Dose (mg/kg)
- Lin-AUC (0-∞) (ng•min/ml)/Dose (mg/kg) [4, 7]: 17352 ± 14479 (ng•min/ml)/Dose (mg/kg)
- T-Last [4, 7]: 8 to 12 h
- Terminal Half-life elimination, t½z [4, 7]: 2.22 ± 0.75 h
- Tmax [4, 7]: 3 ± 2.12 h
